Laboratory results published in paper PMC13233820, “Recruitment of Mre11 to recombination sites during meiosis” (Nature Communications, 2026).

Key:
[1] = tested on: meiotic Mre11^myc foci; assay: Immunofluorescence of meiotic Mre11myc foci, yeast nuclear spreads; format: cell-based, Saccharomyces cerevisiae; conditions: brief exposure to 1,6-hexanediol, prophase I spreads
Procedure: Following standard protocols, strains were patched on YPG plates, mated and streaked on YPD plates, and selected diploid colonies grown in liquid YPD at 30 °C, 250 rpm, overnight. For meiotic synchronization, diploid cultures grown overnight in YPD were transferred to YPA (1% yeast extract, 2% peptone, 1% potassium acetate) at OD600 0.2 and grown for 12–14 h at 30 °C, 250 rpm. Once the cultures reached OD600 between 1.2–1.6, cells were washed once with prewarmed sterile water and immediately transferred to sporulation medium supplemented with amino acids (320 µL amino acid complementation media for 100 mL of sporulation media (SPM)) and were kept shaking at 30 °C, 250 rpm during the entire meiotic time-course. For MMS and CPT (Sigma) sensitivity assays, serial dilutions of overnight cultures were spotted on freshly prepared YPD-MMS or YPD-CPT plates containing the indicated percentage of MMS or CPT, respectively. […]
(§1) Slides were blocked with 90% FBS, 1 × PBS for 1 h at room temperature in a humid chamber and then incubated with primary antibody (mouse mAb anti-myc, 1:200 (2276S, Cell Signaling Technology), rabbit anti-phospho H2A-S129, 1:200 (ab15083, abcam)) diluted in 3% BSA, 1 × PBS in a humid chamber for 2 h at 37 °C or overnight at 4 °C. […] Images were captured on a Zeiss Axio Observer with a 100 ×/1.4 NA oil immersion objective and were analyzed in ImageJ.

[2] = tested on: MMS-induced Mre11^myc foci in vegetatively growing yeast; assay: Immunofluorescence of MMS-induced Mre11myc foci, vegetative yeast nuclear spreads; format: cell-based, Saccharomyces cerevisiae
Procedure: Following standard protocols, strains were patched on YPG plates, mated and streaked on YPD plates, and selected diploid colonies grown in liquid YPD at 30 °C, 250 rpm, overnight. For meiotic synchronization, diploid cultures grown overnight in YPD were transferred to YPA (1% yeast extract, 2% peptone, 1% potassium acetate) at OD600 0.2 and grown for 12–14 h at 30 °C, 250 rpm. Once the cultures reached OD600 between 1.2–1.6, cells were washed once with prewarmed sterile water and immediately transferred to sporulation medium supplemented with amino acids (320 µL amino acid complementation media for 100 mL of sporulation media (SPM)) and were kept shaking at 30 °C, 250 rpm during the entire meiotic time-course. For MMS and CPT (Sigma) sensitivity assays, serial dilutions of overnight cultures were spotted on freshly prepared YPD-MMS or YPD-CPT plates containing the indicated percentage of MMS or CPT, respectively. Plates were grown for two days at 30 °C. For immunofluorescence of vegetatively growing cells, overnight cultures were refreshed by diluting to OD600 0.2 and grown for 3-4 hours to reach OD600 1.2–1.4 before subjecting to MMS or MMS followed by 5% 1,6-hexanediol treatment. For 5% 1,6-hexanediol treatment, cells were first converted to spheroplasts and then treated with 5% 1,6-hexanediol for 4-5 min. Spheroplasts were then immediately washed, lysed, and fixed using the protocol described below.
Meiotic cultures were harvested 4 h after transfer to SPM, washed with sterile cold water, and resuspended in 1 M sorbitol, 1 × PBS (pH 7), 10 mM DTT, 0.5 mg/ml zymolyase 20 T, and incubated for 30 mins at 30 °C with gentle shaking. […]
as §1

[3] = tested on: MRX condensates; format: biochemical, Saccharomyces cerevisiae; conditions: 5% 1,6-hexanediol, ten-minute treatment
Procedure: Experiments were performed without PEG. b, d Effect of DNase I, in the absence of PEG, on (b) Mre11 (n = 9 (no treatment) and 11 (DNase I)) and (d) MRX (n = 9 (no treatment) and 11 (DNase I)) condensates. Condensates were pre-assembled for 20 min with 5.7 nM pUC19 prior to challenge. Quantification represents total foci intensity (green) in a field of view and total number of foci per 1000 µm^2 (magenta). Foci intensity is normalized to the mean intensity of samples with DNA for (a, c) and untreated samples for (b, d). Error bars represent mean ± SD from the indicated (n) fields of view. e, f Effect of the presence of 5% PEG-3350 on (e) Mre11 (n = 12) and (f) MRX (n = 11) condensate formation. Quantification represents total foci intensity (green) in a field of view (normalized to the mean of + PEG images) and total number of foci per 1000 µm^2 (magenta). Error bars represent mean ± SD from the indicated (n) fields of view. g–j Effect of challenge with 5% 1,6-hexanediol and 0.5 M NaCl on (g, h) Mre11 and (i, j) MRX condensates. Condensates were assembled for 20 min prior to challenge and incubated for 15 min and 10 min, respectively, after challenge. […]
(§2) Proteins were diluted to a 10 × stock of their appropriate working concentrations in their respective storage buffers. […] Images were analyzed with ImageJ using a custom-made script. […] Data were analyzed using Graphpad Prism 10.4.0.

[4] = tested on: Mre11 condensates; format: biochemical, Saccharomyces cerevisiae; conditions: 5% 1,6-hexanediol, ten-minute treatment
Procedure: Experiments were performed without PEG. b, d Effect of DNase I, in the absence of PEG, on (b) Mre11 (n = 9 (no treatment) and 11 (DNase I)) and (d) MRX (n = 9 (no treatment) and 11 (DNase I)) condensates. Condensates were pre-assembled for 20 min with 5.7 nM pUC19 prior to challenge. Quantification represents total foci intensity (green) in a field of view and total number of foci per 1000 µm^2 (magenta). Foci intensity is normalized to the mean intensity of samples with DNA for (a, c) and untreated samples for (b, d). Error bars represent mean ± SD from the indicated (n) fields of view. e, f Effect of the presence of 5% PEG-3350 on (e) Mre11 (n = 12) and (f) MRX (n = 11) condensate formation. Quantification represents total foci intensity (green) in a field of view (normalized to the mean of + PEG images) and total number of foci per 1000 µm^2 (magenta). Error bars represent mean ± SD from the indicated (n) fields of view. g–j Effect of challenge with 5% 1,6-hexanediol and 0.5 M NaCl on (g, h) Mre11 and (i, j) MRX condensates. […] In the control reaction, an equivalent volume (1/20) of water was added instead of hexanediol. […]
as §2

[5] = tested on: Mer2 coiled-coil; assay: ITC Mre11-C49 / Mer2 coiled-coil; format: binding, Saccharomyces cerevisiae; conditions: Mre11-C49 titrated into Mer2 coiled-coil; peer review file
[6] = tested on: HisSUMO-Mer2 (wild type); assay: Co-expression pull-down assay (NiNTA, anti-MBP immunoblot); format: binding, Saccharomyces cerevisiae; conditions: co-expressed in E. coli
Procedure: Wild-type and mutant MBP-tagged Mre11-C49 and HisSUMO-tagged Mer2 were co-expressed in 50 mL of E. coli BL21 cultures and purified by affinity chromatography on Ni-NTA resin following a procedure similar to that described above. Briefly, cells were lysed by sonication and centrifuged at maximum speed for 30 mins at 4 °C on a table-top centrifuge. A small fraction of the supernatant was collected as ‘Input’ and the remainder was incubated with 120 µL Ni-NTA resin, pre-equilibrated with wash buffer (25 mM HEPES pH 7.5, 20 mM imidazole, 0.1 mM DTT, 0.1 mM PMSF, 10% glycerol), for 1 hour on a rotating wheel at 4 °C. The resin was washed twice with 2 ml in batch and five times with 2 ml on column before eluting with 250 µL of 500 mM imidazole in wash buffer. Input and elution fractions were separated by SDS-PAGE followed by immunoblotting with primary murine anti-MBP monoclonal antibody at 1:10,000 dilution (E8032S, NEB) and secondary goat anti-mouse IgG-HRP conjugated at 1:10,000 dilution (AP308P, Chemicon).

[7] = tested on: Mer2 condensates; assay: Colocalization of fluorescently-labeled Mer2 and Mre11 condensates; format: binding, Saccharomyces cerevisiae; conditions: 800 nM mScarlet-Mre11-C49 with 200 nM eGFP-Mer2, 30 min
Procedure: Fig. 4 Mer2 recruits Mre11 during meiosis. a Effect of 1,6-hexanediol treatment on meiotic Mre11^myc foci visualized by immunofluorescence analysis of yeast nuclear spreads 4 hours after transfer to SPM. […] At least 22 tetrads were dissected for each strain (n ≥ 88 spores). e Quantification of sub-population of cells showing discrete Mre11 foci and aggregated Mre11 foci in indicated strains. Images used for analysis were from the same experiments in (b) and (d). f Colocalization of fluorescently-labeled Mer2 with wild-type or truncated Mre11. […] The number of images analyzed for each sample were WT (n = 11), Mre11^Δ10-270 (n = 13), Mre11^Δ290-472 (n = 15), Mre11^ΔIDR (n = 10), Mre11^ΔC49 (n = 13). Error bars represent mean ± SD from the indicated (n) fields of view. p-values compared to Mre11-WT are: Mre11^Δ10-270 (0.006), Mre11^Δ290-472 (0.0003), Mre11^ΔIDR (<0.0001), Mre11^ΔC49 (<0.0001). g Colocalization of fluorescently-labeled Mre11-C49 and Mer2. Condensates were assembled by mixing 800 nM of ^mScarletMre11-C49 and 200 nM of ^eGFPMer2 for 30 min prior to imaging. […]
Proteins were diluted to a 10 × stock of their appropriate working concentrations in their respective storage buffers. […] Images were analyzed with ImageJ using a custom-made script. […] Masked foci were counted, and the intensity inside the focus mask was integrated. […] Data were analyzed using Graphpad Prism 10.4.0.

[8] = tested on: Mer2; assay: Yeast two-hybrid; format: binding, Saccharomyces cerevisiae; conditions: SC-Leu-Ura-His + 25 mM 3-AT
Procedure: Bait and prey plasmids were co-transformed into yWL365 using the standard ‘LiAc’-based transformation and plated on SC-Leu-Ura selective media. At least four independent transformants were tested for Mer2-Mre11 interaction by spotting a dilution series on SC-Leu- Ura-His + 25 mM 3-AT (3-amino-1,2,4-triazole) and growing for 4-5 days at 30 °C.

Molecule | Effect on meiotic Mre11 foci (in words) [1] | Effect on MMS-induced Mre11 foci (in words) ([2]; 5% 1,6-hexanediol, 4-5 min) | Percentage of aggregates ([2]; MMS + 5% 1,6-hexanediol 4-5 min) | Effect on MRX foci intensity (in words) [3] | Effect on Mre11 foci intensity (in words) [4] | ITC result [5] | Interaction with Mer2 in pulldown (in words) [6] | Localization around Mer2 condensates (in words) [7] | Yeast two-hybrid interaction with Mer2 (in words) [8]
OCCCCCCO [1,6-hexanediol] | disassembles these foci | readily dissolved MMS-induced foci | 100 | strong reduction in foci intensity | strong reduction in foci intensity | – | – | – | –
SYGLLNGRKTKTKTRSAASTKTASRRGKGRASRTPKTDILGSLLAKKRK [Mre11-C49, Mre11 C-terminal residues 644–692] | – | – | – | – | – | inconclusive | directly binds Mer2 | forms a halo-like structure around Mer2 condensates | not sufficient for Mer2 binding
